# Results: patent US10316017B2, “COT modulators and methods of use thereof” (Gilead Sciences, Inc., priority 2015, dated 2019)
# Where two headings read alike, the source gives them in different places.
# How the values were obtained:
# [1] = biological target: T1, human Cot catalytic domain (30-397 amino acids) (Homo sapiens, UniProt P41279); assay: High Throughput Cot Biochemical Assay (KinEASE TR-FRET); settings: read-out: IC50 HTRF
# T1 construct: Purified recombinant human Cot catalytic domain (30-397 amino acids) was purchased from Cama Biosciences; purchased Cama Biosciences (so in the source)
# T1 sequence (P41279 30-397): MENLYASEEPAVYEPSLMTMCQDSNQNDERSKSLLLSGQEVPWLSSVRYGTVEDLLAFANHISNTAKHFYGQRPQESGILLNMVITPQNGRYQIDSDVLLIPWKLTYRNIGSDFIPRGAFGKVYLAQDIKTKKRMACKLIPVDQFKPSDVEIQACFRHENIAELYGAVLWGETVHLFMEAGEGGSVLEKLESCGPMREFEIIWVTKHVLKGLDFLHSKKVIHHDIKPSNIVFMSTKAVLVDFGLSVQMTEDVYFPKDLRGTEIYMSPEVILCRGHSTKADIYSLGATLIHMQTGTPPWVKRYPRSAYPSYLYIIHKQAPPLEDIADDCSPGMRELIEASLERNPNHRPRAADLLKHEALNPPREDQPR
# In short: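 Reaction of 5 nM recombinant human Cot catalytic domain (aa 30-397) with 1 μM STK3 peptide (XL665-labeled) and 400 μM ATP in 10 mM MOPS pH 7.0, 10 mM MgOAc, 1 mM DTT, 0.5 mg/mL BSA, 0.1% DMSO. Phosphopeptide detected by TR-FRET with europium anti-phospho antibody.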
# [2] = system: TNFα production in LPS-stimulated human monocytes; assay: Cot Monocyte TNFα Cell Based Assay; settings: Homo sapiens, Monocyte, read-out: EC50 TNF
# In short: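 Cells at 5,000/well were pretreated with compound for 1 h at 37 °C (0.5% DMSO final), then stimulated with 50 pg/ml LPS for 4 h at 37 °C. Supernatant TNFα was measured by two-antibody TR-FRET after overnight room-temperature incubation; values are percent of control between unstimulated and stimulated wells.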
# [3] = Cot KinEASE TR-FRET (HTRF) biochemical assay, 400 μM ATP
# [4] = TNFα in LPS-stimulated human monocytes
# [5] = Cot KinEASE TR-FRET, 400 μM ATP
# [6] = LPS-stimulated human monocytes, TNFα TR-FRET
# [7] = Cot biochemical HTRF (KinEASE TR-FRET) assay
"IC50 [1, 3] [nM]","EC50 [2, 4] [nM]","IC50 [1, 5] [nM]","EC50 [2, 6] [nM]","IC50 [1, 7] [nM]",Structure (SMILES)
39,525,,,,"[2H][C@](Nc1cc(Cl)c2ncc(C#N)c(NC(C)(C)CC)c2c1)(c1ccc(F)cc1)c1cn(C2CC2)nn1 [Example 282, (S)-8-chloro-6-(((1-cyclopropyl-1H-1,2,3-triazol-4-yl)(4-fluorophenyl)methyl-d)amino)-4-(tert-pentylamino) quinoline-3-carbonitrile]"
12,673,,,,"[2H][C@@](Nc1cc(Cl)c2ncc(C#N)c(Nc3cnc(F)c(F)c3)c2c1)(c1cn(C2CC2)nn1)c1ccccc1Cl [Example 358, (S)-8-chloro-6-(((2-chlorophenyl)(1-cyclopropyl-1H-1,2,3-triazol-4-yl)methyl-d)amino)-4-((5,6-difluoropyridin-3-yl)amino)quinoline-3-carbonitrile]"
3,107,,,,"[2H][C@](Nc1cc(Cl)c2ncc(C#N)c(NCC(C)(C)CCl)c2c1)(c1ccc(F)cc1)c1cn(C2CC2)nn1 [Example 192, (S)-8-chloro-4-((3-chloro-2,2-dimethylpropyl)amino)-6-(((1-cyclopropyl-1H-1,2,3-triazol-4-yl)(4-fluorophenyl)methyl-d)amino)quinoline-3-carbonitrile]"
,,234,≥ 1000,,"CC(C)(C)CNc1c(C#N)cnc2c(Cl)cc(N[C@@H](c3ccccc3Cl)c3nnn(C4(C)CC4)c3F)cc12 [Example 1169, (S)-8-chloro-6-(((2-chlorophenyl)(5-fluoro-1-(1-methylcyclopropyl)-1H-1,2,3-triazol-4-yl)methyl)amino)-4-(neopentylamino)quinoline-3-carbonitrile]"
,92,,,4,CCN1CCC(n2cc([C@@H](Nc3cc(Cl)c4ncc(C#N)c(Nc5cccc(Cl)c5)c4c3)c3ccccc3)nn2)[C@H](O)C1 (stereo partly shown) [Example 516]
,,26,79,,"Cc1nnc(C2(n3cc([C@@H](Nc4cc(Cl)c5ncc(C#N)c(NCC(C)(C)C)c5c4)c4ccccc4Cl)nn3)CC2)o1 [Example 1110, (S)-8-chloro-6-(((2-chlorophenyl)(1-(1-(5-methyl-1,3,4-oxadiazol-2-yl)cyclopropyl)-1H-1,2,3-triazol-4-yl)methyl)amino)-4-(neopentylamino)quinoline-3-carbonitrile]"
,660,,,73,"CC[C@@H](Nc1c(C#N)cnc2c(Cl)cc(N[C@H](c3c[nH]nn3)c3ccccc3Cl)cc12)c1ccccc1 [Example 533, 8-chloro-6-(((S)-(2-chlorophenyl)(1H-1,2,3-triazol-4-yl)methyl)amino)-4-(((R)-1-phenylpropyl)amino) quinoline-3-carbonitrile]"
,1150,,,6,"CC[C@@H](Nc1c(C#N)cnc2c(Cl)cc(N[C@@H](c3cccc(C(=O)N4CC(F)(F)C4)c3)c3c[nH]nn3)cc12)c1ccccc1 [Example 561, 8-chloro-6-(((S)-(3-(3,3-difluoroazetidine-1-carbonyl)phenyl)(1H-1,2,3-triazol-4-yl)methyl)amino)-4-(((R)-1-phenylpropyl)amino)quinoline-3-carbonitrile]"
59,832,,,,"[2H][C@](Nc1cc(Cl)c2ncc(C#N)c(NCC(C)(C)C)c2c1)(c1cn(CC(F)(F)F)nn1)c1ccccc1Cl [Example 93, 8-chloro-6-(((2-chlorophenyl) (1-(2,2,2-trifluoroethyl)-1H-1,2,3-triazol-4-yl)methyl-d)amino)-4-(neopentylamino) quinoline-3-carbonitrile]"
,,1,≥ 1000,,"[2H]C(Nc1cc(C#N)c2ncc(C#N)c(NCC(C)(C)C)c2c1)(c1cccc(C#N)c1)c1cn(C2(C(N)=O)CC2)nn1 (stereo not shown) [Example 969, 1-(4-((3-cyanophenyl)((3,8-dicyano-4-(neopentylamino)quinolin-6-yl)amino)methyl-d)-1H-1,2,3-triazol-1-yl)cyclopropane-1-carboxamide]"
,,102,≥ 1000,,"CC(C)(C)CNc1c(C#N)cnc2c(-c3cncnc3)cc(N[C@H](c3cn(C4(C)CC4)nn3)c3ccccc3Cl)cc12 [Example 1037, (S)-6-(((2-chlorophenyl)(1-(1-methylcyclopropyl)-1H-1,2,3-triazol-4-yl)methyl)amino)-4-(neopentylamino)-8-(pyrimidin-5-yl)quinoline-3-carbonitrile]"
,382,,,6,"C[C@@H](Nc1c(C#N)cnc2c(Cl)cc(N[C@@H](c3cccc(C(=O)N(C)C)c3)c3cn(C4CCN(C(C)(C)C)CC4)nn3)cc12)c1ccccc1 [Example 571, 3-((S)-(1-(1-(tert-butyl)piperidin-4-yl)-1H-1,2,3-triazol-4-yl)((8-chloro-3-cyano-4-(((R)-1-phenylethyl)amino)quinolin-6-yl)amino)methyl)-N,N-dimethylbenzamide]"
,420,,,98,"CC1(CNc2c(C#N)cnc3c(Cl)cc(N[C@@H](c4ccccc4)c4cn(C5CCN(C(C)(C)C)CC5)nn4)cc23)COC1 [Example 452, (S)-6-(((1-(1-(tert-butyl)piperidin-4-yl)-1H-1,2,3-triazol-4-yl)(phenyl)methyl)amino)-8-chloro-4-(((3-methyloxetan-3-yl)methyl)amino)quinoline-3-carbonitrile]"
166,2890,,,,"[2H][C@](Nc1cc(Cl)c2ncc(C#N)c(NCCC(C)C)c2c1)(c1ccc(F)cc1)c1cn(C2CC2)nn1 [Example 268, (S)-8-chloro-6-(((1-cyclopropyl-1H-1,2,3-triazol-4-yl)(4-fluorophenyl)methyl-d)amino)-4-(isopentylamino)quinoline-3-carbonitrile]"
,1310,,,97,"CC(C)(C)N1CCC(n2cc([C@@H](Nc3cc(Cl)c4ncc(C#N)c(Nc5ccccc5Cl)c4c3)c3ccc(Cl)cc3)nn2)CC1 [Example 758, (S)-6-(((1-(1-(tert-butyl)piperidin-4-yl)-1H-1,2,3-triazol-4-yl)(4-chlorophenyl)methyl)amino)-8-chloro-4-((2-chlorophenyl)amino)quinoline-3-carbonitrile]"
,> 10000,,,387,"Cn1cc(Nc2c(C#N)cnc3c(Cl)cc(N[C@@H](c4ccccc4)c4cn(C5COC5)nn4)cc23)ccc1=O [Example 483, (S)-8-chloro-4-((1-methyl-6-oxo-1,6-dihydropyridin-3-yl)amino)-6-(((1-(oxetan-3-yl)-1H-1,2,3-triazol-4-yl)(phenyl)methyl)amino) quinoline-3-carbonitrile]"
,865,,,20,"CC(C)(C)N1CCC(n2cc([C@@H](Nc3cc(Cl)c4ncc(C#N)c(Nc5cncc(Cl)c5)c4c3)c3ccccc3)nn2)CC1 [Example 780, (S)-6-(((1-(1-(tert-butyl)piperidin-4-yl)-1H-1,2,3-triazol-4-yl)(phenyl)methyl)amino)-8-chloro-4-((5-chloropyridin-3-yl)amino)quinoline-3-carbonitrile]"
496,3260,,,,"[2H][C@](Nc1cc(Cl)c2ncc(C#N)c(Nc3ccccc3OC)c2c1)(c1ccc(F)cc1)c1cn(C2CC2)nn1 [Example 160, (S)-8-chloro-6-(((1-cyclopropyl-1H-1,2,3-triazol-4-yl)(4-fluorophenyl)methyl-d)amino)-4-((2-methoxyphenyl)amino)quinoline-3-carbonitrile]"
4,450,,,,"[2H][C@](Nc1cc(Cl)c2ncc(C#N)c(NCC(C)(C)C)c2c1)(c1cccc(C#N)c1)c1c[nH]nn1 [Example 324, (S)-8-chloro-6-(((3-cyanophenyl)(1H-1,2,3-triazol-4-yl)methyl-d)amino)-4-(neopentylamino) quinoline-3-carbonitrile]"
,,5,148,,"CC(C)(C)CNc1c(C#N)cnc2c(C#N)cc(N[C@@H](c3cccc(C4(C#N)CC4)c3)c3cn(C45CC(C4)C5)nn3)cc12 [Example 1129, (S)-6-(((1-(bicyclo[1.1.1]pentan-1-yl)-1H-1,2,3-triazol-4-yl)(3-(1-cyanocyclopropyl)phenyl)methyl)amino)-4-(neopentylamino)quinoline-3,8-dicarbonitrile]"
2090,6270,,,,"[2H][C@](Nc1cc(F)c2ncc(C#N)c(N[C@@H](CCC#N)c3ccccc3)c2c1)(c1cccc(C#N)c1)c1cn(C2CC2)nn1 [Example 165, 4-(((S)-3-cyano-1-phenylpropyl)amino)-6-(((S)-(3-cyanophenyl) (1-cyclopropyl-1H-1,2,3-triazol-4-yl)methyl-d)amino)-8-fluoroquinoline-3-carbonitrile]"
,2180,,,40,"CC(C)(C)N1CCC(n2cc([C@@H](Nc3cc(Cl)c4ncc(C#N)c(NCc5ccccc5Cl)c4c3)c3ccccc3)nn2)CC1 [Example 616, (S)-6-(((1-(1-(tert-butyl)piperidin-4-yl)-1H-1,2,3-triazol-4-yl)(phenyl)methyl)amino)-8-chloro-4-((2-chlorobenzyl)amino)quinoline-3-carbonitrile]"
,8440,,,480,"CC[C@@H](C)Nc1c(C#N)cnc2c(Cl)cc(N[C@@H](c3ccccc3)c3cn(C(C)C)nn3)cc12 [Example 589, 4-(((R)-sec-butyl)amino)-8-chloro-6-(((S)-(1-isopropyl-1H-1,2,3-triazol-4-yl)(phenyl)methyl)amino)quinoline-3-carbonitrile]"
